Measurements from patent publication US20210318318A1, “Kinase Activity In Tumors” (Institute For Cancer Research d/b/a The Research Institute …, priority 2018, published 2021).

Columns and labels:
COV362 = experiment: Short-term growth assay (CellTiter-Glo cell viability), kinase inhibitors; type: cell-based, human; conditions: increasing concentrations, Cell Titer Glo
Description: Cell viability was determined by Cell Titer Glo analysis.
COV362 cells were treated with increasing concentrations of A-674563 and cell viability assessed by Cell Titer Glo according to manufacturer's instructions. Data represent the mean of six replicates.
To explore the therapeutic potential of the HGSOC kinome signature, a detailed molecular analysis of protein levels/activity, growth and survival functions was carried out in a panel of recently validated HGSOC cell lines (Coscia et al., Nat. Commun., 2016, 7, 12645) that harbor commonly encountered HGSOC mutations and genetic rearrangements (see, FIG. 5A).
For short-term growth assays, 3000-5000 cells were plated per well in 96-well plates and allowed to adhere and equilibrate overnight. Drug was added the following morning and after 120 hours of drug treatment, cell viability was assessed using the CellTiter-Glo Luminescent cell viability assay according to manufacturer (Promega). Students t tests were performed for statistical analyses and p values ≤0.05 were considered significant. For colony formation assays, cells were plated in 24-well dishes (3000-5000 cells per well) and incubated overnight before continuous drug treatment for 14 days, with drug and media replaced twice weekly. At the end of treatment, cells were rinsed with PBS and fixed with chilled methanol for 10 minutes at −20° C. Methanol was removed by aspiration, and cells were stained with 0.5% crystal violet in 20% methanol for 20 minutes at room temperature, washed with distilled water, and scanned.

[1] = tested on: FAK1, MLC and Paxillin phosphorylation; FAK1 and CHEK1 protein levels; experiment: Western blot of signaling in inhibitor-treated HGSOC cells; type: cell-based, human; conditions: 48 hours
Description: COV362 cells were treated with 0.5, 1 or 3 μM of A-674563 or SB-772077 for 48 hours and signaling monitored by western blot.
Samples were harvested in MIB lysis buffer, subjected to SDS-PAGE […] and transferred to PVDF membranes before western blotting with primary antibodies. For pMYPT and pMLC blots, cells were harvested in a buffer containing 1% (w/v) SDS, 50 mM Tris pH 7.5 supplemented with protease and phosphatase inhibitors buffer and were passed through QIAshredder columns (Qiagen, 79654), (Unbekandt et al., Cell Commun. Signal., 2014, 12, 54). For the list of primary antibodies used, see Table 4. Secondary HRP-anti-rabbit and HRP-anti-mouse were obtained from ThermoFisher Scientific. SuperSignal West Pico and Femto Chemiluminescent Substrates (Thermo) were used to visualize blots.

## Cc1[nH]nc2ccc(-c3cncc(OC[C@@H](N)Cc4ccccc4)c3)cc12 [A-674563]
COV362
  cell viability: inhibited cell viability
[1]; HGSOC (COV362) cells, 0.5, 1 or 3 μM
  FAK1 and CHEK1 protein levels: uniquely reduced
[1]; HGSOC (COV362) cells, increasing doses 0.5, 1 or 3 μM
  FAK1, MLC and Paxillin phosphorylation: inhibited
